Assay results taken from ChEMBL document CHEMBL5338746, “New Generation of sGC Stimulators: Discovery of Imidazo[1,2-a]pyridine Carboxamide BAY 1165747 (BAY-747), a Long-Acting Soluble Guanylate Cyclase Stimulator for the Treatment of Resistant Hypertension” (J Med Chem, 2023).
Calls of active or inactive are those of the source. No cut-off for these calls is given here.

Assays:
Rattus norvegicus [1] = assay: Anti-hypertensive activity against L-NAME treated renin transgenic Wistar rat cardiovascular disease model assessed as reduction in plasma BNP level at 0.3 mg/kg administered once daily via oral gavage upto 21 days (reference value: 403+/-325 pg/ml); assay type: functional; settings: time <= 21 day
Rattus norvegicus [2] = assay: Antihypertensive activity in spontaneous hypertensive Wistar rat assessed as decrease in systolic blood pressure at 0.03 mg/kg, iv administered as bolus injection measured for 21 days by tail-cuff method (reference value: -12 mmHg); assay type: functional; settings: time 21 day
Rattus norvegicus [3] = assay: Antihypertensive activity in spontaneous hypertensive Wistar rat assessed as decrease in systolic blood pressure at 0.1 mg/kg, iv administered as bolus injection measured for 21 days by tail-cuff method (reference value: -12 mmHg); assay type: functional; settings: time 21 day
Rattus norvegicus [4] = assay: Antihypertensive activity in spontaneous hypertensive Wistar rat assessed as decrease in systolic blood pressure at 0.01 mg/kg, iv administered as bolus injection measured for 21 days by tail-cuff method (reference value: -12 mmHg); assay type: functional; settings: time 21 day
Rattus norvegicus [5] = assay: Anti-hypertensive activity against L-NAME treated renin transgenic Wistar rat cardiovascular disease model assessed as increase in plasma cGMP level at 3 mg/kg administered once daily via oral gavage upto 21 days (reference value: 572+/-350 pmol/mL); assay type: functional; settings: time <= 21 day
Rattus norvegicus [6] = assay: Antihypertensive activity in spontaneous hypertensive Wistar rat model assessed as reduction in blood pressure at 1 mg/kg, po measured after 24 hrs by radiotelemetry analysis; assay type: functional, organism-based
Rattus norvegicus [7] = assay: Anti-hypertensive activity against L-NAME treated renin transgenic Wistar rat cardiovascular disease model assessed as increase in survival at 3 mg/kg administered once daily via oral gavage upto 21 days (reference value: 21%); assay type: functional; settings: time <= 21 day
Rattus norvegicus [8] = assay: Antihypertensive activity against L-NAME treated renin transgenic Wistar rat cardiovascular disease model assessed as reduction in mortality rate at 0.3 mg/kg administered via oral gavage once daily for 21 days; assay type: functional, organism-based; settings: time 21.0 day
Rattus norvegicus [9] = assay: Antihypertensive activity against L-NAME treated renin transgenic Wistar rat cardiovascular disease model assessed as reduction in mortality rate at 3 mg/kg administered via oral gavage once daily for 21 days; assay type: functional, organism-based; settings: time 21.0 day
Rattus norvegicus [10] = assay: Antihypertensive activity in spontaneous hypertensive Wistar rat model assessed as reduction in blood pressure at 0.3 to 3.0 mg/kg, po measured after 2 hrs by radiotelemetry analysis; assay type: functional; parameters: scale not given: the % may be the effect or the level left; settings: dose 0.3-3 mg/kg
Rattus norvegicus [11] = assay: Antihypertensive activity against L-NAME treated renin transgenic Wistar rat cardiovascular disease model assessed as reduction in blood pressure at 3 mg/kg administered via oral gavage once daily for 28 days; assay type: functional, organism-based; settings: time 28.0 day
Rattus norvegicus [12] = assay: Anti-hypertensive activity against L-NAME treated renin transgenic Wistar rat cardiovascular disease model assessed as increase in plasma cGMP level at 0.3 mg/kg administered once daily via oral gavage upto 21 days (reference value: 572+/-350 pmol/mL); assay type: functional; settings: time <= 21 day
Rattus norvegicus [13] = assay: Anti-hypertensive activity against L-NAME treated renin transgenic Wistar rat cardiovascular disease model assessed as change in kidney to body weight at 3 mg/kg administered once daily via oral gavage upto 21 days (reference value: 3.79 +/- 0.1 g/kg); assay type: functional; settings: time <= 21 day
Rattus norvegicus [14] = assay: Antihypertensive activity in spontaneous hypertensive Wistar rat assessed as decrease in systolic blood pressure at 0.003 mg/kg, iv administered as bolus injection measured for 21 days by tail-cuff method (reference value: -12 mmHg); assay type: functional; settings: time 21 day
Aorta = assay: Vasorelaxant activity in New Zealand White rabbits aortic rings assessed as reduction in phenylephrine-induced contraction measured after 30 mins; assay type: functional, tissue-based; settings: Oryctolagus cuniculus, 0.5 h
Rattus norvegicus [15] = assay: Antihypertensive activity against L-NAME treated renin transgenic Wistar rat cardiovascular disease model assessed as reduction in blood pressure at 0.3 mg/kg administered via oral gavage once daily for 28 days; assay type: functional, organism-based; settings: time 28.0 day
Rattus norvegicus [16] = assay: Anti-hypertensive activity against L-NAME treated renin transgenic Wistar rat cardiovascular disease model assessed as increase in survival at 0.3 mg/kg administered once daily via oral gavage upto 21 days (reference value: 21%); assay type: functional; settings: time <= 21 day
Rattus norvegicus [17] = assay: Antihypertensive activity against L-NAME treated renin transgenic Wistar rat cardiovascular disease model assessed as body weight gain at 3 mg/kg administered via oral gavage once daily for 21 days; assay type: functional, organism-based; settings: time 21.0 day
Rattus norvegicus [18] = assay: Anti-hypertensive activity against L-NAME treated renin transgenic Wistar rat cardiovascular disease model assessed as change in heart to body weight at 3 mg/kg administered once daily via oral gavage upto 21 days (reference value: 4.64+/-0.3 g/Kg); assay type: functional; settings: time <= 21 day
Rattus norvegicus [19] = assay: Antihypertensive activity in spontaneous hypertensive Wistar rat model assessed as reduction in blood pressure po administered bolus injection by radiotelemetry analysis; assay type: functional, organism-based; settings: dose 0.3 mg/kg
Rattus norvegicus [20] = assay: Antihypertensive activity in spontaneous hypertensive Wistar rat model assessed as reduction in blood pressure at 0.3 mg/kg, po measured after 24 hrs by radiotelemetry analysis; assay type: functional, organism-based
Rattus norvegicus [21] = assay: Antihypertensive activity in spontaneous hypertensive Wistar rat assessed as decrease in systolic blood pressure at 0.3 mg/kg, iv administered as bolus injection measured for 21 days by tail-cuff method; assay type: functional; settings: time 21 day
Rattus norvegicus [22] = assay: Antihypertensive activity against L-NAME treated renin transgenic Wistar rat cardiovascular disease model assessed as body weight gain at 0.3 mg/kg administered via oral gavage once daily for 21 days; assay type: functional, organism-based; settings: time 21.0 day
Rattus norvegicus [23] = assay: Anti-hypertensive activity against L-NAME treated renin transgenic Wistar rat cardiovascular disease model assessed as reduction in plasma BNP level at 3 mg/kg administered once daily via oral gavage upto 21 days (reference value: 403+/-325 pg/ml); assay type: functional; settings: time <= 21 day
Rattus norvegicus [24] = assay: Antihypertensive activity in spontaneous hypertensive Wistar rat assessed as decrease in systolic blood pressure iv administered as bolus injection measured for 21 days by tail-cuff method; assay type: functional, organism-based; settings: dose 0.3-3 mg/kg, time 21.0 day
Rattus norvegicus [25] = assay: Anti-hypertensive activity against L-NAME treated renin transgenic Wistar rat cardiovascular disease model assessed as change in heart to body weight at 0.3 mg/kg administered once daily via oral gavage upto 21 days (reference value: 4.64+/-0.3 g/Kg); assay type: functional; settings: time <= 21 day
Rattus norvegicus [26] = assay: Antihypertensive activity in spontaneous hypertensive Wistar rat assessed as decrease in systolic blood pressure at 0.3 mg/kg, iv administered as bolus injection measured for 21 days by tail-cuff method (reference value: -12 mmHg); assay type: functional; settings: time 21 day
Rattus norvegicus [27] = assay: Anti-hypertensive activity against L-NAME treated renin transgenic Wistar rat cardiovascular disease model assessed as change in kidney to body weight at 0.3 mg/kg administered once daily via oral gavage upto 21 days (reference value: 3.79 +/- 0.1 g/kg); assay type: functional; settings: time <= 21 day

CC[C@](C)(N)CNC(=O)c1c(C)nc2c(OCc3c(F)cccc3F)cc(C)cn12
Activity (Rattus norvegicus [1]): 284 pg/mL | Activity (Rattus norvegicus [2]): -49 mmHg | Activity (Rattus norvegicus [3]): -70 mmHg | Activity (Rattus norvegicus [4]): -22 mmHg | Activity (Rattus norvegicus [5]): 2798 pmol/mL | Activity (Rattus norvegicus [6]): Active | Activity (Rattus norvegicus [7]): 78% | Activity (Rattus norvegicus [8]): Active | Activity (Rattus norvegicus [9]): Active | Activity (Rattus norvegicus [10]): 10% | Activity (Rattus norvegicus [11]): Active | Activity (Rattus norvegicus [12]): 1018 pmol/mL | Activity (Rattus norvegicus [13]): 3.72 g/kg | Activity (Rattus norvegicus [14]): -19 mmHg | IC50 (Aorta): 27 nM | Activity (Rattus norvegicus [15]): inactive | Activity (Rattus norvegicus [16]): 44% | Activity (Rattus norvegicus [17]): Active | Activity (Rattus norvegicus [18]): 3.64 g/kg | Activity (Rattus norvegicus [19]): Dose-Dependent Effect | Activity (Rattus norvegicus [20]): Active | Activity (Rattus norvegicus [21]): -86 mmHg | Activity (Rattus norvegicus [22]): Active | Activity (Rattus norvegicus [23]): 97 pg/mL | Activity (Rattus norvegicus [24]): Dose-Dependent Effect | Activity (Rattus norvegicus [25]): 4.03 g/kg | Activity (Rattus norvegicus [26]): -86 mmHg | Activity (Rattus norvegicus [27]): 3.72 g/kg
